The CheMixHub ionic liquid set
± gives the uncertainty stated by the source.

Assay: xn = mol fraction of the nth substance listed

SMILES: C[P+](c1ccccc1)(c1ccccc1)c1ccccc1.[Br-] + CC(=O)O
- viscosity (298.2 K, 101 kPa, x1 = 0.2): 74.5 ± 2.5 mPa·s

SMILES: CCCCCCCCCCCCCCCC[n+]1ccccc1.[Br-] + O
- electrical conductivity (298.15 K, 100 kPa, x1 = 9.009e-05): 0.021 ± 0.001 S/m
- electrical conductivity (303.15 K, 100 kPa, x1 = 9.009e-05): 0.021 ± 0.001 S/m
- electrical conductivity (308.15 K, 100 kPa, x1 = 9.009e-05): 0.022 ± 0.001 S/m
- electrical conductivity (313.15 K, 100 kPa, x1 = 9.009e-05): 0.024 ± 0.001 S/m

SMILES: N + CCCC[n+]1ccn(C)c1.O=S(=O)([N-]S(=O)(=O)C(F)(F)F)C(F)(F)F
- viscosity (313.2 K, 101 kPa, x2 = 0.7997): 20.1 ± 2.1 mPa·s
- viscosity (313.2 K, 101 kPa, x2 = 0.8338): 21.7 ± 2.3 mPa·s
- viscosity (313.2 K, 101 kPa, x2 = 0.8696): 22 ± 2.3 mPa·s
- viscosity (313.2 K, 101 kPa, x2 = 0.9099): 23.1 ± 2.4 mPa·s
- viscosity (313.2 K, 101 kPa, x2 = 0.9541): 25.1 ± 2.6 mPa·s

SMILES: CC(=O)[O-].CCOCCn1cc[n+](C)c1 + O
- electrical conductivity (293.15 K, 100 kPa, x1 = 0.9129): 0.288 ± 0.02 S/m
- viscosity (293.15 K, 100 kPa, x1 = 0.9129): 35.75 ± 0.38 mPa·s
- electrical conductivity (293.15 K, 100 kPa, x1 = 0.9447): 0.25 ± 0.02 S/m
- viscosity (293.15 K, 100 kPa, x1 = 0.9447): 36.71 ± 0.39 mPa·s
- electrical conductivity (298.15 K, 100 kPa, x1 = 0.9447): 0.31 ± 0.02 S/m
- viscosity (298.15 K, 100 kPa, x1 = 0.9447): 28.98 ± 0.33 mPa·s
- electrical conductivity (303.15 K, 100 kPa, x1 = 0.9447): 0.394 ± 0.02 S/m
- viscosity (303.15 K, 100 kPa, x1 = 0.9447): 23.12 ± 0.29 mPa·s
- electrical conductivity (308.15 K, 100 kPa, x1 = 0.8821): 0.586 ± 0.02 S/m
- viscosity (308.15 K, 100 kPa, x1 = 0.8821): 17.7 ± 0.26 mPa·s
- electrical conductivity (313.15 K, 100 kPa, x1 = 0.8524): 0.764 ± 0.02 S/m
- viscosity (313.15 K, 100 kPa, x1 = 0.8524): 14.07 ± 0.24 mPa·s
- electrical conductivity (313.15 K, 100 kPa, x1 = 0.8821): 0.719 ± 0.02 S/m
- viscosity (313.15 K, 100 kPa, x1 = 0.8821): 14.45 ± 0.24 mPa·s
- electrical conductivity (313.15 K, 100 kPa, x1 = 1): 0.568 ± 0.02 S/m
- viscosity (313.15 K, 100 kPa, x1 = 1): 15.8 ± 0.24 mPa·s

SMILES: O=C1O[C@H]([C@@H](O)CO)C(O)=C1O + O + CCCC[N+](CCCC)(CCCC)CCCC.O=S(=O)([O-])O
- viscosity (298.15 K, 101 kPa, x1 = 0.0003639, x3 = 0): 0.899 ± 0.009 mPa·s
- viscosity (298.15 K, 101 kPa, x1 = 0.0006573, x3 = 0): 0.904 ± 0.009 mPa·s
- viscosity (298.15 K, 101 kPa, x1 = 0.0009524, x3 = 0): 0.91 ± 0.009 mPa·s
- viscosity (298.15 K, 101 kPa, x1 = 0.001251, x3 = 0): 0.916 ± 0.009 mPa·s
- viscosity (298.15 K, 101 kPa, x1 = 0.001553, x3 = 0): 0.922 ± 0.009 mPa·s
- viscosity (298.15 K, 101 kPa, x1 = 0.001856, x3 = 0): 0.927 ± 0.009 mPa·s
- viscosity (308.15 K, 101 kPa, x1 = 0.0003639, x3 = 0): 0.724 ± 0.008 mPa·s
- viscosity (308.15 K, 101 kPa, x1 = 0.0006573, x3 = 0): 0.728 ± 0.008 mPa·s
- viscosity (308.15 K, 101 kPa, x1 = 0.0009524, x3 = 0): 0.732 ± 0.008 mPa·s
- viscosity (308.15 K, 101 kPa, x1 = 0.001251, x3 = 0): 0.738 ± 0.008 mPa·s
- viscosity (308.15 K, 101 kPa, x1 = 0.001553, x3 = 0): 0.743 ± 0.008 mPa·s
- viscosity (308.15 K, 101 kPa, x1 = 0.001856, x3 = 0): 0.748 ± 0.008 mPa·s
- viscosity (318.15 K, 101 kPa, x1 = 0.0003639, x3 = 0): 0.6 ± 0.008 mPa·s
- viscosity (318.15 K, 101 kPa, x1 = 0.0006573, x3 = 0): 0.604 ± 0.008 mPa·s
- viscosity (318.15 K, 101 kPa, x1 = 0.0009524, x3 = 0): 0.608 ± 0.008 mPa·s
- viscosity (318.15 K, 101 kPa, x1 = 0.001251, x3 = 0): 0.612 ± 0.008 mPa·s
- viscosity (318.15 K, 101 kPa, x1 = 0.001553, x3 = 0): 0.616 ± 0.008 mPa·s
- viscosity (318.15 K, 101 kPa, x1 = 0.001856, x3 = 0): 0.621 ± 0.008 mPa·s

SMILES: CC[n+]1ccn(C)c1.[Cl][Al-]([Cl])([Cl])[Cl] + CCn1cc[n+](C)c1.[Cl][Al-]([Cl])([Cl])[Cl+][Al-]([Cl])([Cl])[Cl]
- viscosity (293.15 K, 100 kPa, x2 = 0.2046): 19.38 ± 0.18 mPa·s
- viscosity (303.15 K, 100 kPa, x2 = 0): 15.69 ± 0.14 mPa·s
- viscosity (303.15 K, 100 kPa, x2 = 0.3035): 14.44 ± 0.13 mPa·s
- viscosity (303.15 K, 100 kPa, x2 = 0.5041): 13.77 ± 0.12 mPa·s
- viscosity (303.15 K, 100 kPa, x2 = 0.6955): 13.21 ± 0.12 mPa·s
- viscosity (323.15 K, 100 kPa, x2 = 0.4003): 9.033 ± 0.082 mPa·s
- viscosity (323.15 K, 100 kPa, x2 = 0.5962): 8.65 ± 0.078 mPa·s
- viscosity (323.15 K, 100 kPa, x2 = 0.6955): 8.468 ± 0.076 mPa·s
- viscosity (323.15 K, 100 kPa, x2 = 0.7963): 8.286 ± 0.075 mPa·s
- viscosity (333.15 K, 100 kPa, x2 = 0.1016): 8.016 ± 0.072 mPa·s
- viscosity (333.15 K, 100 kPa, x2 = 0.2046): 7.821 ± 0.071 mPa·s
- viscosity (333.15 K, 100 kPa, x2 = 0.8901): 6.726 ± 0.061 mPa·s
- viscosity (343.15 K, 100 kPa, x2 = 0.5962): 6.037 ± 0.055 mPa·s
- viscosity (343.15 K, 100 kPa, x2 = 0.6955): 5.906 ± 0.053 mPa·s
- viscosity (353.15 K, 100 kPa, x2 = 0.1016): 5.806 ± 0.052 mPa·s
